Data on nine molecules can be found in patent publication US20260355323A1, “CEREBLON-RECRUITING BCL-XL/BCL-2 DUAL DEGRADERS” (University of Florida Research Foundation, Incorporated, priority 2022, published 2026).

One data set deals with platelets. Particulars: animals and/or humans; cited from earlier work.
The test system of data set [1] is venetoclax resistant CLL cells. Particulars: cited from earlier work.
The subject of data set [2] is HUVEC irradiation-induced senescent cells (IR-SC). In words: Senolytic activity, cell viability (PrestoBlue HS), HUVEC IR-SC. It counts as cell-based. The following applies: Homo sapiens, 72 h. As to the method:
To induce senescence in WI-38 and HUVEC, cells were subjected to x-ray irradiation at 20 Gray using X-RAD 320 biological irradiator. Following between 10 to 15 days after irradiation, senescence was induced in cells, and irradiation-induced senescent cells (IR-SC) were then used for cell viability and Western blotting tests.
(§1) WI-38 and HUVEC cells were incubated with increasing concentrations of degraders for 72 h. Cell viability was measured using PrestoBlue HS cell viability reagent.

Data set [3] deals with WI-38 irradiation-induced senescent cells (IR-SC). Briefly: Senolytic activity, cell viability (PrestoBlue HS), WI-38 IR-SC. In kind it is cell-based. The following applies: Homo sapiens, 72 h. In a few lines:
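WI-38 and HUVEC were made senescent by 20 Gy x-ray irradiation and used 10–15 days later. Senescent cells were exposed to increasing degrader concentrations for 72 h. Viability was read with PrestoBlue HS.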

Data set [4] concerns the target T1, Bcl-xL (Homo sapiens, UniProt Q07817).
T1 construct: immunoblot after 16 h degrader treatment
In words: Bcl-xL protein degradation in Jurkat cells (immunoblot). In kind it is cell-based. The following applies: 16 h. The method, then: (§2) Jurkat and Hela cells were incubated with increasing concentrations of test compounds for 16 h. The cells were harvested and lysed in RIPA lysis buffer supplemented with protease and phosphatase inhibitor cocktails. An equal amount of protein (20 μg/lane) was resolved on a pre-cast 4-20% SDS-PAGE gel. Proteins were subsequently transferred to NOVEX PVDF membranes by electrophoresis. The membranes were blocked in blocking buffer (5% non-fat dry milk in TBS-T), and incubated with primary antibodies (at optimized concentrations) overnight at 4° C. After three washings in TBS-T, the membranes were incubated with an appropriate FIRP-conjugated secondary antibody for 1 h at room temperature. After extensive washing for three times, the proteins of interest were detected with ECL western blotting detection reagents and recorded with autoradiography (Pierce Biotech, Rockford, IL, USA). The primary antibodies for Bcl-xL (Cat #2762), Bcl-2 (Cat #2872), Bcl-w (Cat #2724) and β-actin (Cat #4970) were purchased from Cell Signaling Technology. The relative band intensity was measured using ImageJ software and normalized to β-actin.
On the technique in general: A western blot detects proteins with antibodies after separation by electrophoresis.

Data set [5] deals with RS4;11 acute lymphoblastic leukemia cells. In words: Cell viability, tetrazolium-based MTS assay, RS4;11. Particulars: Homo sapiens, RS4;11, 48 h, read-out: Anti-Cancer Activity EC50 (48 hr), RS4. The method, then:
(§3) Acute lymphoblastic leukemia cells (MOLT-4 and RS4;11) were incubated with increasing concentrations of Bcl-xL/Bcl-2 degraders for 48 h. Cell viability was measured by tetrazolium-based MTS assay.
A general note: Tetrazolium assays rely on reduction of a dye to a coloured formazan, in cell work by metabolically active cells.

A further data set has as its system WI-38 NC. Briefly: Senolytic activity, cell viability (PrestoBlue HS), WI-38 NC. In kind it is cell-based. Particulars: Homo sapiens, 72 h. The method, then:
as §1

Data set [6] relates to MOLT-4 acute lymphoblastic leukemia cells. Briefly: Cell viability, tetrazolium-based MTS assay, MOLT-4. Particulars: Homo sapiens, MOLT-4, 48 h; read-out: Anti-Cancer Activity EC50 (48 hr), MOLT-4. As to the method:
as §3

The target in data set [7] is T1, Bcl-xL. Briefly: Bcl-xL protein degradation in Hela cells (immunoblot). It counts as cell-based. Particulars: 16 h. The method, then: as §2
In a further data set the test system is HUVEC NC. Briefly: Senolytic activity, cell viability (PrestoBlue HS), HUVEC NC. In kind it is cell-based. The method, then:
as §1

pEC50: −log10 of the molar value.

T1 sequence (Q07817 whole entry): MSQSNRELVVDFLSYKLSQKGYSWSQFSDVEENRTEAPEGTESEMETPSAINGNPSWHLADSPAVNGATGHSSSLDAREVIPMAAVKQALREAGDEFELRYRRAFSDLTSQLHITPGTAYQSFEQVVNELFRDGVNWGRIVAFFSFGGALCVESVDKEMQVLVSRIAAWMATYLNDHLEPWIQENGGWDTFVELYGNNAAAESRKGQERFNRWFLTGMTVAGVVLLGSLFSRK
T1 sequence (Q96SW2 whole entry partner): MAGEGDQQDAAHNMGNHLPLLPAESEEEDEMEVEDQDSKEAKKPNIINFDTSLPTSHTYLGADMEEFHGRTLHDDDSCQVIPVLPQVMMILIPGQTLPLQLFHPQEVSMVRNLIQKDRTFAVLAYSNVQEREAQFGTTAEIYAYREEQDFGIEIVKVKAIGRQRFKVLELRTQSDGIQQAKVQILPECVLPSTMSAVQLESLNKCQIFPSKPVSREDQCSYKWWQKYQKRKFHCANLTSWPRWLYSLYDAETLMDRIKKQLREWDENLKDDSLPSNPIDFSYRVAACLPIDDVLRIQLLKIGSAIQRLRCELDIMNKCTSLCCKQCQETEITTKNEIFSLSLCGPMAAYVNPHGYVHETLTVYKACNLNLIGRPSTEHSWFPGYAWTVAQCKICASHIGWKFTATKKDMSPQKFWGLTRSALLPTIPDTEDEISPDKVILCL

`CC1(C)CCC(c2ccc(Cl)cc2)=C(CN2CCN(c3ccc(C(=O)NS(=O)(=O)c4ccc(N[C@H](CCN5CCOCC5)CSc5ccccc5)c(S(=O)(=O)C(F)(F)F)c4)cc3)CC2)C1` [ABT-263, navitoclax]: the dose-limiting thrombocytopenia result in the data set on platelets is “dose-limiting thrombocytopenia has been observed”. In addition, the “efficacy in killing venetoclax resistant CLL cells” value in data set [1] is reported as “high efficacy”.

As for `CN(C)CC[C@H](CSc1ccccc1)Nc1ccc(S(=O)(=O)NC(=O)c2ccc(N3CCN(Cc4ccccc4-c4ccc(Cl)cc4)CC3)cc2)cc1[N+](=O)[O-]` [ABT-737], in the data set with platelets, the dose-limiting thrombocytopenia entry is given as “dose-limiting thrombocytopenia has been observed”.

On to `Cc1c(S(C)(=O)=O)c(-c2cc(F)cc(N3CCN(c4ccc(NS(=O)(=O)c5ccc(N[C@H](CCN6CCC(O)CC6)CSc6ccccc6)c(S(=O)(=O)C(F)(F)F)c5)cc4)CC3)c2)c(-c2ccc(Cl)cc2)n1C(C)C` [BM-1197], for which the dose-limiting thrombocytopenia entry in the data set with platelets is given as “dose-limiting thrombocytopenia has been observed”.

As a reminder, the pEC50 is the EC50 on a negative log10 scale, so that one unit is a factor of ten. On to `C[C@@]1(CN2CCC(CN3CCN(c4ccc5c(c4)CN(C4CCC(=O)NC4=O)C5=O)CC3)CC2)CCC(c2ccc(Cl)cc2)=C(CN2CCN(c3ccc(C(=O)NS(=O)(=O)c4ccc(N[C@H](CCN5CCCOCC5)CSc5ccccc5)c(S(=O)(=O)C(F)(F)F)c4)cc3)CC2)C1` (stereo partly drawn) [Compound 11, N-((4-(((R)-4-(1,4-oxazepan-4-yl)-1-(phenylthio)butan-2-yl)amino)-3-((trifluoromethyl)sulfonyl)phenyl)sulfonyl)-4-(4-(((4R)-4′-chloro-4-((4-((4-(2-(2,6-dioxopiperidin-3-yl)-1-oxoisoindolin-5-yl)piperazin-1-yl)methyl)piperidin-1-yl)methyl)-4-methyl-3,4,5,6-tetrahydro-[1,1′-biphenyl]-2-yl)methyl)piperazin-1-yl)benzamide], for which the pEC50 in [2] was above 9.00; in [3], 8.00 to 9.00; in data set [5], above 9.00; in the data set with WI-38 NC it was below 5.00; in data set [6] it was above 9.00. Besides, the “degradation of Bcl-xL” value on Bcl-xL [4] and on Bcl-xL [7] was “degrade Bcl-xL in a dose-dependent manner” throughout.

For the molecule `C[C@@]1(CN2CCC(CN3CCCN(c4ccc5c(c4)CN(C4CCC(=O)NC4=O)C5=O)CC3)CC2)CCC(c2ccc(Cl)cc2)=C(CN2CCN(c3ccc(C(=O)NS(=O)(=O)c4ccc(N[C@H](CCN5CCCOCC5)CSc5ccccc5)c(S(=O)(=O)C(F)(F)F)c4)cc3)CC2)C1` (stereo partly drawn) [Compound 44, N-((4-(((R)-4-(1,4-oxazepan-4-yl)-1-(phenylthio)butan-2-yl)amino)-3-((trifluoromethyl)sulfonyl)phenyl)sulfonyl)-4-(4-(((4R)-4′-chloro-4-((4-((4-(2-(2,6-dioxopiperidin-3-yl)-1-oxoisoindolin-5-yl)-1,4-diazepan-1-yl)methyl)piperidin-1-yl)methyl)-4-methyl-3,4,5,6-tetrahydro-[1,1′-biphenyl]-2-yl)methyl)piperazin-1-yl)benzamide], the pEC50 was above 9.00 in [2]; 8.00 to 9.00 in data set [3]; above 9.00 in data set [5]; below 5.00 in the data set on WI-38 NC; above 9.00 in data set [6]. In the data set on HUVEC NC, the “Senolytic Activity EC50 (72 hr), HUVEC NC” value (“Senolytic Activity EC50” for short) is “++ (100-10 μM)”. For the same molecule, the “degradation of Bcl-xL” value on Bcl-xL [4] and at Bcl-xL [7] was “degrade Bcl-xL in a dose-dependent manner” in each case.

Regarding `C[C@@]1(CN2CCC(c3ccc4c(c3)CN(C3CCC(=O)NC3=O)C4=O)CC2)CCC(c2ccc(Cl)cc2)=C(CN2CCN(c3ccc(C(=O)NS(=O)(=O)c4ccc(N[C@H](CCN5CCCOCC5)CSc5ccccc5)c(S(=O)(=O)C(F)(F)F)c4)cc3)CC2)C1` (stereo partly drawn) [Compound 128, N-((4-(((R)-4-(1,4-oxazepan-4-yl)-1-(phenylthio)butan-2-yl)amino)-3-((trifluoromethyl)sulfonyl)phenyl)sulfonyl)-4-(4-(((4R)-4′-chloro-4-((4-(2-(2,6-dioxopiperidin-3-yl)-1-oxoisoindolin-5-yl)piperidin-1-yl)methyl)-4-methyl-3,4,5,6-tetrahydro-[1,1′-biphenyl]-2-yl)methyl)piperazin-1-yl)benzamide], the negative logarithm of the EC50 (pEC50) in data set [2] is above 9.00; in data set [3], 8.00 to 9.00; in data set [5] it was above 9.00; in [6] it was above 9.00. In addition, in the data set on HUVEC NC, the “Senolytic Activity EC50” value is reported as “++ (100-10 μM)”. Also, the “degradation of Bcl-xL” value on Bcl-xL [4] and on Bcl-xL [7] was “degrade Bcl-xL in a dose-dependent manner” in each case.

On to `C[C@@]1(CN2CCC(CN3CCN(c4ccc5c(c4)C(=O)N(C4CCC(=O)NC4=O)C5)CC3)CC2)CCC(c2ccc(Cl)cc2)=C(CN2CCN(c3ccc(C(=O)NS(=O)(=O)c4ccc(N[C@H](CCN5CCCOCC5)CSc5ccccc5)c(S(=O)(=O)C(F)(F)F)c4)cc3)CC2)C1` (stereo partly shown) [Compound 134], for which the pEC50 in [2] is above 9.00; in data set [3] it was 8.00 to 9.00; in [5], above 9.00; in data set [6] it was above 9.00. In addition, the “Senolytic Activity EC50” value in the data set with HUVEC NC was “++ (100-10 μM)”.

As to `C[C@@]1(CN2CCCN(c3ccc4c(c3)CN(C3CCC(=O)NC3=O)C4=O)CC2)CCC(c2ccc(Cl)cc2)=C(CN2CCN(c3ccc(C(=O)NS(=O)(=O)c4ccc(N[C@H](CCN5CCCOCC5)CSc5ccccc5)c(S(=O)(=O)C(F)(F)F)c4)cc3)CC2)C1` (stereo partly drawn) [Compound 135, N-((4-(((R)-4-(1,4-oxazepan-4-yl)-1-(phenylthio)butan-2-yl)amino)-3-((trifluoromethyl)sulfonyl)phenyl)sulfonyl)-4-(4-(((4R)-4′-chloro-4-((4-(2-(2,6-dioxopiperidin-3-yl)-1-oxoisoindolin-5-yl)-1,4-diazepan-1-yl)methyl)-4-methyl-3,4,5,6-tetrahydro-[1,1′-biphenyl]-2-yl)methyl)piperazin-1-yl)benzamide], the negative-log EC50 (pEC50) is above 9.00 in data set [2], 7.00 to 8.00 in data set [3], above 9.00 in [5] and above 9.00 in data set [6]. Also, the “Senolytic Activity EC50” value with HUVEC NC is “++ (100-10 μM)”.

For `CN(C)CC#Cc1ccc(OCCCc2sc(N3CCc4cccc(C(=O)Nc5nc6ccccc6s5)c4C3)nc2C(=O)O)c(F)c1` [Compound A-1155463], the dose-limiting thrombocytopenia entry in the data set with platelets was “dose-limiting thrombocytopenia has been observed”.
